Experimental data: patent US9644181B2, “Cell preparation containing myocardium-committed cell” (RIKEN, priority 2012, dated 2017)

Columns and labels:
[1] = tested on: adipose-tissue-derived multi-lineage/multi-potent progenitor cells (ADMPC); experiment: Comparison of the induction of the expression of various markers by spermine and DMSO; format: cell-based, human
Protocol: (§1) Adipose tissues were provided by subjects from whom informed consent had been obtained by suction surgery from subcutaneous tissues. Neither steroid agent nor TZD had been administered to any of the subjects. Adipose tissues were cut into small pieces. Next, digestion was performed for 1 hour with shaking in 0.067% collagenase (Roche applied science)-containing Hanks' Balanced Salt Solution (HBSS) in a water bath at 37° C. The digested products were filtered through a Cell Strainer (BD Bioscience) and then centrifuged at 800 g for 10 minutes. Erythrocytes were removed by a specific gravity method using Lymphoprep (d=1.077) (Nycomed). The thus obtained Stromal Vascular Fraction (cells) was seeded into DMEM containing 10% fetal calf serum (Life Technologies). Cells were cultured for 24 hours so that they would adhere. After washing, the resultant was treated with EDTA, and ADMPC were thereby obtained. Next, ADMPC were seeded on a human-fibronectin-coated dish in medium I: 60% DMEM-low glucose, 40% MCDB201, […], 1 nM dexamethasone, 100 μM ascorbic acid, and 5% FBS at a density of 10,000 cells/cm^2, passaged 3 to 5 times, and then used for experiments.
(§2) Total RNA was isolated from the thus obtained cells using an RNeasy mini kit (Qiagen) according to protocols recommended by the manufacturer. Total RNA (500 ng) was subjected to DNase treatment, and then cDNA was synthesized using Superscript III reverse transcriptase RNase H (-) (Life Technologies).
(§3) Subsequently, TaqMan Universal PCR Master Mix (Applied Biosystems) (10 μl) and TaqMan Gene Expression Assays (Applied Biosystems) (1 μl) were added to the thus prepared cDNA (9 μl). Real-time PCR was performed using an Applied Biosystems 7900 Fast Real-Time PCR system under the following conditions: denaturation at 95° C. for 10 minutes and 40 cycles of 95° C. for 15 seconds and 60° C. for 1 minute. TaqMan probes and assay IDs (available from GenBank/NCBI (U.S.A.)) used for Islet-1, Nkx2.5, GATA-4, α-CA, cardiac troponin I, MLC, MHC, and GAPDH are listed in Table 1 below.
ADMPC passaged 4 times by plate culture were detached and washed with TrypLE Select (Life Technologies; the same applies hereafter) and were suspended at a concentration of 1×10^5/mL in Knockout-DMEM (Life Technologies; the same applies hereafter) supplemented with 0, 5, 25, 50, 100, 200, or 500 μM or 1 mM spermine (Wako Pure Chemical Industries, Ltd. (Japan); the same applies hereafter) and 20% KSR (Knockout Serum Replacement; Life Technologies; the same applies hereafter). 10 mL of cells was seeded on an EZ-Sphere low-adhesion culture dish (diameter: 10 cm, AGC; the same applies hereafter), and then suspension culture was performed. […]

[2] = tested on: adipose-tissue-derived multi-lineage/multi-potent progenitor cells (ADMPC); experiment: Induction of the expression of myocardium-committed-cell markers in ADMPC, concentration series (TaqMan PCR, GAPDH ratios); format: cell-based, human
Protocol: as §1, §2, §3
ADMPC passaged 4 times by plate culture were detached and washed with TrypLE Select (Life Technologies; the same applies hereafter) and were suspended at a concentration of 1×10^5/mL in Knockout-DMEM (Life Technologies; […], Ltd. (Japan); the same applies hereafter) and 20% KSR (Knockout Serum Replacement; Life Technologies; the same applies hereafter). 10 mL of cells was seeded on an EZ-Sphere low-adhesion culture dish (diameter: 10 cm, AGC; the same applies hereafter), and then suspension culture was performed. After 24 hours, cells were collected, quantitative analysis of expression was performed by TaqMan PCR, and then GAPDH ratios were calculated.

[3] = tested on: adipose-tissue-derived multi-lineage/multi-potent progenitor cells (ADMPC); settings: FIG. 1
Protocol: as §1
Total RNA was isolated from the thus obtained cells using an RNeasy mini kit (Qiagen) according to protocols recommended by the manufacturer. […]

For `C[S+](C)[O-]` [DMSO], the “Cardiac troponin I/DMSO ratio” value ([1]; 0.1% in medium, 48 hours) was 1, the “Cardiac α-actin/DMSO ratio” value ([1]; 0.1% in medium, 48 hours) was 1 and the GATA4/DMSO ratio ([1]; 0.1% in medium, 48 hours) was 1. For the same compound, the Isl1/DMSO ratio ([1]; 0.1% in medium, 48 hours) was 1, the MHC/DMSO ratio ([1]; 0.1% in medium, 48 hours) was “Not detected” and the MLC/DMSO ratio ([1]; 0.1% in medium, 48 hours) was 1. The Nkx2.5/DMSO ratio ([1]; 0.1% in medium, 48 hours) was 1.

In the case of `NCCCNCCCCNCCCN` [Spermine, spermine], the “expression of isl-1, nkx2.5, GATA-4, α-CA, cardiac troponin I and MHC” value ([2]; spermine 0, 5, 25, 50, 100, 200, 500 μM or 1 mM, suspension culture 24 hours) is reported as “expression was confirmed”, the “concentration at which all markers exhibited the highest expression levels” value ([2]; spermine series 0-1 mM, 24 hours) is reported as 100 µM and the “effect of presence or absence of growth factors (EGF, bFGF) on the expression levels” value ([3]; 100 μM spermine) is reported as “did not significantly affect”. The “expression of isl-1, nkx2.5, GATA-4, α-CA, cardiac troponin I, MHC and MLC” value ([3]; 100 μM, 24, 72 and 120 hours) was “Expression was confirmed”, the “expression levels of all markers, treatment with spermine compared with treatment with DMSO” value ([1]; 100 μM spermine 24, 72, 120 hours vs 0.1% DMSO 48 hours) was “several to several hundred times greater” and the “Cardiac troponin I/DMSO ratio” value ([1]; 100 μM, 1 day culture) was 7.91. The “Cardiac α-actin/DMSO ratio” value ([1]; 100 μM, 1 day culture) was 192.84, the GATA4/DMSO ratio ([1]; 100 μM, 1 day culture) was 3.75 and the Isl1/DMSO ratio ([1]; 100 μM, 1 day culture) was 6.79. The MHC/DMSO ratio ([1]; 100 μM, 1 day culture) was 2.31 × 10^−6, the MLC/DMSO ratio ([1]; 100 μM, 1 day culture) was 0.67 and the Nkx2.5/DMSO ratio ([1]; 100 μM, 1 day culture) was 3.58. For the same compound, the “Cardiac troponin I/DMSO ratio” value ([1]; 100 μM, 3 days culture) was 25.16, the “Cardiac α-actin/DMSO ratio” value ([1]; 100 μM, 3 days culture) was 169.75 and the GATA4/DMSO ratio ([1]; 100 μM, 3 days culture) was 8.19. The Isl1/DMSO ratio ([1]; 100 μM, 3 days culture) was 10.44, the MHC/DMSO ratio ([1]; 100 μM, 3 days culture) was 3.74 × 10^−5 and the MLC/DMSO ratio ([1]; 100 μM, 3 days culture) was 0.88. The Nkx2.5/DMSO ratio ([1]; 100 μM, 3 days culture) was 5.19, the “Cardiac troponin I/DMSO ratio” value ([1]; 100 μM, 5 days culture) was 11.87 and the “Cardiac α-actin/DMSO ratio” value ([1]; 100 μM, 5 days culture) was 42.85. The GATA4/DMSO ratio ([1]; 100 μM, 5 days culture) was 12.15, the Isl1/DMSO ratio ([1]; 100 μM, 5 days culture) was 3.49 and the MHC/DMSO ratio ([1]; 100 μM, 5 days culture) was 7.67 × 10^−6. For the same compound, the MLC/DMSO ratio ([1]; 100 μM, 5 days culture) was 0.45 and the Nkx2.5/DMSO ratio ([1]; 100 μM, 5 days culture) was 7.47.

`NCCCCNCCCN` [spermidine] was tested, and the “expression of isl-1, nkx2.5 and GATA-4” value ([2]; spermidine 0, 5, 25, 50, 100, 200, 500 μM or 1 mM, suspension culture 24 hours) was “expression was confirmed” and the “concentration at which all markers (isl-1, nkx2.5, GATA-4) exhibited the highest expression levels” value ([2]; spermidine series 0-1 mM, 24 hours) was 200 µM.
